How the values were obtained:
[1] = xn = mol fraction of the nth substance listed; conditions: 101 kPa, Liquid; for speed of sound: Sing-around technique in a fixed-path interferometer
[2] = refractive index (Na D-line) (dimensionless); xn = mol fraction of the nth substance listed; conditions: 101 kPa, Liquid

CCCCC(CC)CO (stereo not given) [2-ethyl-1-hexanol] + Clc1ccccc1
Conditions | mass density, [1] [kg/m3] | refractive index, [2] | speed of sound, [1] [m/s] | viscosity, [1] [mPa·s]
298.15 K, x2 = 0 | 829.07 | 1.4287 | 1319 | 8.418
298.15 K, x2 = 0.0779 | 838.66 | 1.435 | 1313 | 6.736
298.15 K, x2 = 0.1381 | 847.37 | 1.44 | 1308 | 5.641
298.15 K, x2 = 0.1974 | 857.02 | 1.4453 | 1304 | 4.684
298.15 K, x2 = 0.2716 | 870.89 | 1.4523 | 1298 | 3.718
298.15 K, x2 = 0.3399 | 885.34 | 1.4591 | 1292 | 2.996
298.15 K, x2 = 0.4119 | 902.38 | 1.4666 | 1287 | 2.38
298.15 K, x2 = 0.4766 | 919.17 | 1.4734 | 1282 | 1.969
298.15 K, x2 = 0.5461 | 938.46 | 1.4807 | 1277 | 1.628
298.15 K, x2 = 0.6124 | 958.72 | 1.4879 | 1272 | 1.381
298.15 K, x2 = 0.6892 | 983.65 | 1.4961 | 1268 | 1.197
298.15 K, x2 = 0.758 | 1007.82 | 1.5034 | 1265 | 1.06
298.15 K, x2 = 0.8189 | 1029.88 | 1.5095 | 1264 | 0.969
298.15 K, x2 = 0.8888 | 1056.63 | 1.5161 | 1263 | 0.893
298.15 K, x2 = 0.9533 | 1081.91 | 1.521 | 1265 | 0.821
303.15 K, x2 = 0 | 825.39 | 1.4266 | 1301 | 7.144
303.15 K, x2 = 0.0779 | 834.41 | 1.4332 | 1295 | 5.817
303.15 K, x2 = 0.1381 | 842.5 | 1.4382 | 1291 | 4.906
303.15 K, x2 = 0.1974 | 852.03 | 1.4437 | 1286 | 4.121
303.15 K, x2 = 0.2716 | 865.78 | 1.4509 | 1280 | 3.268
303.15 K, x2 = 0.3399 | 880.07 | 1.4577 | 1275 | 2.671
303.15 K, x2 = 0.4119 | 897.12 | 1.4651 | 1269 | 2.147
303.15 K, x2 = 0.4766 | 914.02 | 1.472 | 1264 | 1.785
303.15 K, x2 = 0.5461 | 933.51 | 1.4793 | 1259 | 1.455
303.15 K, x2 = 0.6124 | 953.51 | 1.4863 | 1254 | 1.253
303.15 K, x2 = 0.6892 | 978.28 | 1.4943 | 1250 | 1.057
303.15 K, x2 = 0.758 | 1002.29 | 1.5015 | 1247 | 0.968
303.15 K, x2 = 0.8189 | 1024.42 | 1.5076 | 1246 | 0.881
303.15 K, x2 = 0.8888 | 1050.99 | 1.514 | 1245 | 0.81
303.15 K, x2 = 0.9533 | 1076.27 | 1.5186 | 1247 | 0.764
308.15 K, x2 = 0 | 821.68 | 1.4245 | 1283 | 6.09
308.15 K, x2 = 0.0779 | 829.62 | 1.4308 | 1277 | 4.854
308.15 K, x2 = 0.1381 | 837.63 | 1.4362 | 1273 | 4.032
308.15 K, x2 = 0.1974 | 846.84 | 1.4416 | 1268 | 3.363
308.15 K, x2 = 0.2716 | 860.76 | 1.4491 | 1263 | 2.689
308.15 K, x2 = 0.3399 | 875.1 | 1.4561 | 1257 | 2.171
308.15 K, x2 = 0.4119 | 892.15 | 1.4637 | 1252 | 1.749
308.15 K, x2 = 0.4766 | 908.93 | 1.4706 | 1247 | 1.45
308.15 K, x2 = 0.5461 | 928.26 | 1.4778 | 1242 | 1.221
308.15 K, x2 = 0.6124 | 948.46 | 1.4849 | 1237 | 1.068
308.15 K, x2 = 0.6892 | 973.49 | 1.4929 | 1233 | 0.96
308.15 K, x2 = 0.758 | 996.87 | 1.4998 | 1230 | 0.879
308.15 K, x2 = 0.8189 | 1018.95 | 1.5056 | 1228 | 0.824
308.15 K, x2 = 0.8888 | 1045.23 | 1.5116 | 1228 | 0.774
308.15 K, x2 = 0.9533 | 1070.96 | 1.5161 | 1229 | 0.719
